Earlier results on 4 compounds are cited in patent US7557115B2, “Compounds, compositions, and methods” (Cytokinetics, Inc., priority 2002, dated 2009).

What is called GI50 is the concentration giving 50% growth inhibition.

In this data set the test system is A549 cells. The following applies: concentration that decreases rate of cell growth by fifty percent.
Consider `O=c1[nH]cc(F)c(=O)[nH]1` [5-fluorouracil], for which the GI50 was 1000 nM.
As to `COc1cccc2c1C(=O)c1c(O)c3c(c(O)c1C2=O)C[C@@](O)(C(=O)CO)C[C@@H]3O[C@H]1C[C@H](N)[C@H](O)[C@H](C)O1` [doxorubicin], the GI50 is 63 nM.
Consider `NC(=O)NO` [hydroxyurea], for which the GI50 was 500000 nM.
On to `CC(=O)O[C@H]1C(=O)[C@@]2(C)[C@H]([C@H](OC(=O)c3ccccc3)[C@]3(O)C[C@H](OC(=O)[C@H](O)[C@@H](NC(=O)c4ccccc4)c4ccccc4)C(C)=C1C3(C)C)[C@]1(OC(C)=O)CO[C@@H]1C[C@@H]2O` [paclitaxel], for which the GI50 is 4 nM.
